# “Also recorded” adds a separate entry of the source.
# How the values were obtained:
# [1] = system: tomato seedlings (Solanum lycopersicum); conditions: 16-hour photoperiod, Guillaumot et al. 2016; cited from earlier work
# fishing worms (maggots) = test: Non-toxicity to fishing worms (maggots), viability after spraying; type: in vivo; conditions: for toxicity to fishing worms (maggots): summary statement
# Procedure: The maggots were placed in Petri dishes under a photoperiod (16 h) or under dark conditions in a phytotron (24° C.) for 24 h. […] The percentage viability was determined after 24 h.
# [2] = system: antioxidant enzymes and molecules (total thiols, catalase, guaiacol peroxidase) of tomato seedlings; test: Total thiols, catalase and guaiacol peroxidase in greenhouse tomato seedlings after foliar application; conditions: foliar application of 50 μM Zn-TMPyP, two months
# Procedure: Seedlings (roots and aerial parts separated before freezing) are ground in liquid nitrogen. The powder is transferred into an Eppendorf tube and weighed (between 200 and 100 mg per extraction). The extract is acidified with 0.2 N vortexed HCl and centrifuged (13 000 g 10 min 4° C.). 500 μL of the supernatant is neutralized with 400 μL of NaOH (0.2 N) and 50 μL of Na2HPO4. Then, 700 μL of 0.12 M Na2HPO4, 6 mM EDTA and 6 mM DTNB are added to 200 μL of the neutralized solution. After establishing a glutathione range, the total thiols contained in the samples are determined by UV-vis spectrometry at 412 nm and related to the fresh weight.
# Seedlings (roots and aerial parts separated before freezing) are ground in liquid nitrogen. […]
# Catalase activity is quantifiable by measuring the disappearance of H2O2 by disproportionation into H2O and O2. […] The kinetics of the disappearance of H2O2 are measured for 200 seconds every 20 seconds at 240 nm. The activity is calculated using the molar extinction coefficient of H2O2 which is 43.6 mM^−1·cm^−1.
# Its activity is measured by the oxidation of guaiacol in the presence of H2O2. […] The kinetics of the appearance of the oxidized guaiacol are measured for 120 seconds every 10 seconds at 436 nm. The activity is calculated using the molar extinction coefficient of H2O2 which is 25.5 mM^−1·cm^−1.
# Barley (Hordeum sativum) [3] = test: In vitro cultivation on Zn-TMPyP-rich medium, barley; type: in vivo; conditions: 3.5 μM Zn-TMPyP-rich medium
# Procedure: (§1) The sterilization of the seeds is carried out according to the following protocol. Surface sterilization is first performed with 70% (v/v) ethanol for 2 minutes at ambient temperature. The ethanol is removed and the seeds are immersed in 20% (v/v) sodium hypochlorite for 15-20 minutes and then thoroughly rinsed with sterile water. The barley caryopses are left in the water for at least one hour before cultivation.
# (§2) The germination medium for all of the seeds is Gamborg's synthetic medium, also referred to as B5, (Duchefa Biochemie, Haarlem, the Netherlands), supplemented with 2% sucrose (w/v) and solidified with 0.8% agar (Difco, Dallas, USA). The pH is adjusted to 5.8 with 1 M sodium hydroxide before autoclaving. After autoclaving (120° C., 20 minutes, 1 bar) and cooling of the medium in Petri dishes and/or jars, porphyrin is added at the desired concentration. After sterilization, the seeds are deposited on the solidified B5 medium containing or not containing the porphyrin, under a laminar flow hood. The Petri dishes and jars are placed in culture chambers (16 h photoperiod, 22° C., photon flux density ˜100 μmol·m^−2·s^−1 generated by cool daylight lamps (OSRAM Lumilux 24W)). The jars are used for the transfer of the seedlings and allow them to grow more appropriately. […]
# [4] = system: Grapevine (Vitis vinifera) cultivar: Sauvignon (clone 379); test: In vitro cultivation on Zn-TMPyP-rich medium, grapevine explants; type: in vivo; conditions: 3.5 μM Zn-TMPyP-rich medium, two months of cultivation
# Procedure: (§3) Explants are propagated in a sterile manner from 1-month old seedlings for potato and two-month old seedlings for grapevines. The potato explants are propagated on a Murashige and Skoog synthetic medium supplemented with 2% sucrose and myo-inositol ((100 mg/L), pH 5.8. The grapevine explants are cultivated on ½ Chee and Pool medium supplemented with 2% sucrose, pH 5.9. The media are solidified with 0.8% Sobigel. Both media are supplied by Duchefa Biochemie, Haarlem, the Netherlands. The media are autoclaved as described above for the B5 medium. The grapevine explants are placed in a culture chamber at 25° C. and those of potato at 23° C., the same photoperiod and light intensity as for the seed germinations.
# [5] = system: Potato (Solanum tuberosum) cultivar: Coquine; test: In vitro cultivation on Zn-TMPyP-treated medium, potato explants; type: in vivo; conditions: treated medium (3.5 μM Zn-TMPyP) compared to control
# Procedure: as §3
# Barley (Hordeum sativum) [6] = test: Greenhouse foliar spraying test, barley; conditions: foliar spraying 50 μM Zn-TMPyP, two treatments 48 h apart, after one month and two months
# Procedure: (§6) The various seeds are cultivated in a greenhouse in commercial compost (universal compost, Fertiligene). The seeds were sown in the greenhouse under controlled temperature and humidity conditions (the temperature varies between 15° C. and 30° C. depending on the season, and the relative humidity varies from 50 to 70%).
# (§7) Two spot treatments (about 10 sprays each) spaced 48 h apart were carried out one week after germination. The first treatment was carried out when the seedlings were in the cotyledon stage, the second when the seedlings were in the first-leaf stage.
# (§8) The seedlings were monitored every 48 h. The control medium was sprayed with water at the same frequency.
# [7] = system: Tobacco (Nicotiana benthamiana); test: In vitro cultivation on Zn-TMPyP-rich medium, tobacco; type: in vivo; conditions: 3.5 μM Zn-TMPyP-rich medium, one-and-a-half months of cultivation
# Procedure: as §1
# (§4) The germination medium for all of the seeds is Gamborg's synthetic medium, also referred to as B5, (Duchefa Biochemie, Haarlem, the Netherlands), supplemented with 2% sucrose (w/v) and solidified with 0.8% agar (Difco, Dallas, USA). The pH is adjusted to 5.8 with 1 M sodium hydroxide before autoclaving. After autoclaving (120° C., 20 minutes, 1 bar) and cooling of the medium in Petri dishes and/or jars, porphyrin is added at the desired concentration. After sterilization, the seeds are deposited on the solidified B5 medium containing or not containing the porphyrin, under a laminar flow hood. The Petri dishes and jars are placed in culture chambers (16 h photoperiod, 22° C., photon flux density ˜100 μmol·m^−2·s^−1 generated by cool daylight lamps (OSRAM Lumilux 24W)). The jars are used for the transfer of the seedlings and allow them to grow more appropriately.
# [8] = system: Spinach (Spinacia oleracea); test: Example 4 greenhouse foliar spraying test, spinach; type: in vivo; conditions: 5 foliar sprayings 48 h apart, 50, 75, 100 μM, after 6 weeks
# Procedure: (§5) Additional tests in a greenhouse were carried out. […] The treatments started at the cotyledon stage. The harvesting was carried out 6 weeks after germination (and 10 weeks for barley).
# [9] = system: adventitious plants (goosefoot, proso millet, rye-grass, dock, black nightshade, dandelion, chickweed); test: Example 4 greenhouse foliar spraying test, adventitious plants; type: in vivo; conditions: after 6 weeks
# Procedure: as §5
# [10] = system: plants of interest (tomato, barley, wheat, spinach, turnip, corn, onion, sunflower); test: Example 4 greenhouse foliar spraying test, plants of interest; type: in vivo; conditions: 5 foliar sprayings 48 h apart, regardless of concentration (50, 75, 100 μM), after 6 weeks (10 for barley)
# Procedure: as §5
# [11] = system: Tomato Solanum lycopersicum var Marmande; test: Greenhouse foliar spraying test, tomato; conditions: foliar spraying 50 μM Zn-TMPyP, two treatments 48 h apart, after one month and two months
# Procedure: as §6, §7, §8
# [12] = system: Millet Echinochloa frumentacea; test: Greenhouse foliar spraying test, millet; conditions: foliar spraying 50 μM Zn-TMPyP, two treatments 48 h apart, after one month and two months
# Procedure: as §6, §7, §8
# Poppy (Papaver rhoeas) [13] = test: In vitro cultivation on Zn-TMPyP-treated medium, poppy; type: in vivo; conditions: 3.5 μM Zn-TMPyP, after 6 weeks
# Procedure: as §1, §4
# [14] = system: Arabidopsis thaliana ws ecotype; test: In vitro cultivation on Zn-TMPyP-treated medium, Arabidopsis; type: in vivo; conditions: medium with Zn-TMPyP 3.5 μM, after 1 month
# Procedure: as §1, §4
# Poppy (Papaver rhoeas) [15] = test: Greenhouse foliar spraying test, poppy; conditions: foliar spraying 50 μM Zn-TMPyP
# Procedure: as §6, §7, §8
# [16] = system: Tomato Solanum lycopersicum var Marmande; test: In vitro cultivation on Zn-TMPyP-rich medium, tomato; type: in vivo; conditions: 3.5 μM Zn-TMPyP-rich medium, after 22 days, compared with control
# Procedure: as §1, §2
# [17] = Photostability/photodegradation test in water (Soret band, UV-visible spectrometry); conditions: solution without surfactant, photoperiod 16 h light/8 h dark
# From the text: Monitoring the intensity of the Soret band as a function of the irradiation time makes it possible to calculate the percentage of degraded porphyrins.
# [18] = system: antioxidant machinery (total thiols, catalase, guaiacol peroxidase) of tomato seedlings; test: Total thiols, catalase and guaiacol peroxidase in tomato seedlings cultivated in vitro; type: in vivo, Solanum lycopersicum; conditions: tomato seedlings cultivated in vitro on 3.5 μM Zn-TMPyP-rich medium, 1 month
# [19] = system: Common nettle Urtica dioica; test: In vitro cultivation on Zn-TMPyP-treated medium, nettle; type: in vivo; conditions: medium with Zn-TMPyP 3.5 μM, after 18 days
# Procedure: as §1, §4
substance,measurement,setting,value
tetra(N-methylpyridyl)porphyrin tetrachloride [TMPyP],tomato seedling growth in vitro,[1],significantly altered
same,toxicity to fishing worms (maggots),fishing worms (maggots),non-toxicity
zinc tetra(N-methylpyridyl)porphyrin tetrachloride [Zn-TMPyP],antioxidant enzymes and molecules,[2],remain constant
same,thiols in the roots,[2],increase
same,appearance of barley leaves,Barley (Hordeum sativum) [3],yellowing followed by wilting
same,growth of the barley,Barley (Hordeum sativum) [3]; after one month of cultivation,adversely impacted
same,development of grapevine seedlings,[4],considerable inhibition
same,growth of potato at the stem and roots,[5],slight growth retardation
same,growth of barley (plant of interest),Barley (Hordeum sativum) [6],grow perfectly
same,development of tobacco seedlings,[7],considerable inhibition
same,tomato seedling growth in vitro,[1],significantly altered
same,growth of spinach,[8],slightly affected
same,growth of the adventitious plants,"[9]; 5 foliar sprayings 48 h apart, C1=50, C2=75, C3=100 μM, dose-dependent or at a specific dose",drastically adversely impacts
same,destruction of the adventitious plants,"[9]; 5 foliar sprayings, certain concentrations (of 50, 75, 100 μM)",completely destroy
same,growth of the plants of interest,[10],grow perfectly
same,growth of tomato (plant of interest),[11],grow perfectly
same,herbicidal effect on millet,[12],completely dead
same,response of poppy seedlings,Poppy (Papaver rhoeas) [13],remarkable adverse impact and inhibition
same,growth of Arabidopsis,[14],very significant inhibition
same,time to first symptoms after the first treatment,"Poppy (Papaver rhoeas) [15]; adventitious plants (poppy, millet)",24 h
same,time until the poppy is destroyed after the first treatment,Poppy (Papaver rhoeas) [15]; first 10 sprayings,48 h
same,herbicidal effect on poppy,"Poppy (Papaver rhoeas) [15]; two treatments 48 h apart, after one month and two months",completely dead; also recorded: completely destroyed
same,development of tomato,[16],significantly inhibited
same,effect on viability of maggots (fishing worms),"fishing worms (maggots); spraying of 50 μM Zn-TMPyP, 24 h, in the presence and in the absence of light",harmlessness
same,toxicity to fishing worms (maggots),fishing worms (maggots),non-toxicity
same,days of photoperiod after which the solution disappears,[17],29 days
same,"antioxidant machinery (total thiols, catalase, guaiacol peroxidase)",[18],significantly inhibited
same,growth of nettle,[19],very significant inhibition

# Reference: patent US12616204B2, “Use of cationic porphyrins as selective herbicide” (UNIVERSITE DE LIMOGES, priority 2021, dated 2026)
